Laboratory results published in PubChem BioAssay (NCI).
Values joined by “and” are separate entries in the source; they are usually repeats but may differ in a detail not shown here. Equal entries are not always repeated.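 Briefly, cells in 96-well plates were exposed to five compound concentrations for 48 h, and endpoints were estimated by linear interpolation. GI50 = concentration required for 50% inhibition of growth. TGI: total growth inhibition.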

What was measured:
Test in all cases: NCI tumour cell line growth inhibition, 48 h
DMS 114 small cell lung = system: DMS 114 small cell lung
DMS 273 small cell lung = system: DMS 273 small cell lung
HOP-18 NSCLC = system: HOP-18 NSCLC
KM20L2 colon = system: KM20L2 colon
LXFL 529 NSCLC = system: LXFL 529 NSCLC
RXF-631 renal = system: RXF-631 renal
XF 498 CNS = system: XF 498 CNS
MDA-N = system: MDA-N
T-47D breast = system: T-47D breast
P388/ADR leukemia = system: P388/ADR leukemia

## CCN(CC)CCCNc1nccc2c(C)c3[nH]c4ccncc4c(=O)c3cc12
DMS 114 small cell lung
  TGI: 2.91 µM
DMS 273 small cell lung
  TGI: 11.8 µM
HOP-18 NSCLC
  TGI: 18.7 µM
KM20L2 colon
  TGI: 40 µM
LXFL 529 NSCLC
  TGI: 11.4 µM
RXF-631 renal
  TGI: 22 µM
XF 498 CNS
  TGI: 6.63 µM

## CCCCCCCCC1C(C)c2c([nH]c3ccccc23)C2C(=O)N(c3ccccc3)C(=O)C21 (stereo unspecified)
DMS 114 small cell lung
  TGI: 23.4 µM
DMS 273 small cell lung
  TGI: 22.2 µM
KM20L2 colon
  TGI: 31.7 µM
LXFL 529 NSCLC
  TGI: 30.1 µM
RXF-631 renal
  TGI: 14.2 µM

## O=[N+]([O-])c1cc(C(F)(F)F)cc2n[se]nc12
DMS 114 small cell lung
  TGI: 5.92 µM
DMS 273 small cell lung
  TGI: 27.3 µM
HOP-18 NSCLC
  TGI: 8.96 µM
KM20L2 colon
  TGI: 16.4 µM
LXFL 529 NSCLC
  TGI: 3.14 µM
MDA-N
  TGI: 3.85 µM
RXF-631 renal
  TGI: 30.8 µM
T-47D breast
  TGI: 10.4 µM
XF 498 CNS
  TGI: 5.66 µM

## c1ccc(N2CCN(CCCN3CCc4c([nH]c5ccccc45)C3c3cccnc3)CC2)cc1 (stereo unspecified)
DMS 114 small cell lung
  TGI: > 100 µM
DMS 273 small cell lung
  TGI: > 75.4 µM
HOP-18 NSCLC
  TGI: > 100 µM
KM20L2 colon
  TGI: > 100 µM
LXFL 529 NSCLC
  TGI: > 100 µM
RXF-631 renal
  TGI: 98.2 µM
XF 498 CNS
  TGI: 44.6 µM

## C=C1CCCC2OC(OC)CCC12 (stereo unspecified)
DMS 114 small cell lung
  TGI: > 100 µM
DMS 273 small cell lung
  TGI: > 100 µM
HOP-18 NSCLC
  TGI: > 100 µM
KM20L2 colon
  TGI: > 100 µM
LXFL 529 NSCLC
  TGI: > 100 µM
RXF-631 renal
  TGI: > 100 µM
XF 498 CNS
  TGI: > 100 µM

## O=C(CC1(O)C(=O)Nc2c(Cl)cc(Cl)cc21)c1ccc([N+](=O)[O-])cc1 (stereo unspecified)
DMS 114 small cell lung
  TGI: 53.1 µM
DMS 273 small cell lung
  TGI: > 100 µM
HOP-18 NSCLC
  TGI: > 100 µM
KM20L2 colon
  TGI: > 100 µM
LXFL 529 NSCLC
  TGI: > 51.5 µM
XF 498 CNS
  TGI: > 100 µM

## CN(CO)c1nc(N(C)CO)nc(N(C)CO)n1
DMS 273 small cell lung
  TGI: 25.8 µM
HOP-18 NSCLC
  TGI: > 55.6 µM
KM20L2 colon
  TGI: 25.2 µM
MDA-N
  GI50: 24.8 µM
  TGI: 39.3 µM and 63.4 µM
P388/ADR leukemia
  TGI: 69.1 µM
T-47D breast
  GI50: 25 µM
  TGI: 67.7 µM and 211 µM
XF 498 CNS
  TGI: 12.8 µM

## COC(=O)/C(=N\Nc1nc(=S)[nH]n1N)C(C#N)c1ccc(Cl)cc1 (stereo unspecified)
DMS 114 small cell lung
  TGI: > 100 µM
DMS 273 small cell lung
  TGI: > 100 µM
HOP-18 NSCLC
  TGI: > 100 µM
KM20L2 colon
  TGI: > 100 µM
LXFL 529 NSCLC
  TGI: > 100 µM
RXF-631 renal
  TGI: > 100 µM
XF 498 CNS
  TGI: > 100 µM

## Cc1ccc(-c2nc3ccccc3c(=O)n2NC2OC(CO)C(O)C(O)C2O)cc1 (stereo unspecified)
DMS 114 small cell lung
  TGI: > 100 µM
DMS 273 small cell lung
  TGI: > 100 µM
HOP-18 NSCLC
  TGI: > 100 µM
KM20L2 colon
  TGI: > 100 µM
LXFL 529 NSCLC
  TGI: > 100 µM
RXF-631 renal
  TGI: > 100 µM
XF 498 CNS
  TGI: > 100 µM

## CSC(=NC(=O)c1ccccc1)SCCSC(=NC(=O)c1ccccc1)SC
DMS 114 small cell lung
  TGI: > 100 µM
DMS 273 small cell lung
  TGI: > 100 µM
KM20L2 colon
  TGI: > 100 µM
LXFL 529 NSCLC
  TGI: > 100 µM
RXF-631 renal
  TGI: > 100 µM
XF 498 CNS
  TGI: > 100 µM

## CC1(C)C2=CCCC(=O)[C@@]2(C)CC[C@@H]1O
DMS 114 small cell lung
  TGI: > 100 µM
DMS 273 small cell lung
  TGI: > 100 µM
HOP-18 NSCLC
  TGI: > 100 µM
KM20L2 colon
  TGI: > 100 µM
LXFL 529 NSCLC
  TGI: > 100 µM
XF 498 CNS
  TGI: > 100 µM

## CN(CCc1ccccn1)/[N+]([O-])=N/O (tested in a mixture with another compound)
DMS 114 small cell lung
  TGI: > 100 µM
DMS 273 small cell lung
  TGI: > 100 µM
HOP-18 NSCLC
  TGI: > 100 µM
KM20L2 colon
  TGI: > 100 µM
LXFL 529 NSCLC
  TGI: > 100 µM
RXF-631 renal
  TGI: > 100 µM

## CCc1cc2c(Nc3ccccc3)c3c(nc2s1)CCCC3
DMS 114 small cell lung
  TGI: > 100 µM
DMS 273 small cell lung
  TGI: > 100 µM
HOP-18 NSCLC
  TGI: > 100 µM
KM20L2 colon
  TGI: > 100 µM
LXFL 529 NSCLC
  TGI: > 100 µM
RXF-631 renal
  TGI: > 100 µM
XF 498 CNS
  TGI: 85.1 µM

## CC(/C=C1\CCC(CN(C)C)C1=O)c1cccc(Br)c1 (stereo unspecified)
DMS 114 small cell lung
  TGI: 54.8 µM
HOP-18 NSCLC
  TGI: 33.9 µM
KM20L2 colon
  TGI: 45.4 µM
LXFL 529 NSCLC
  TGI: 17.1 µM
RXF-631 renal
  TGI: 16.9 µM
XF 498 CNS
  TGI: 35.1 µM

## CCCCCCCCCCCCCP(=O)(OC)OC
DMS 114 small cell lung
  TGI: 37 µM
DMS 273 small cell lung
  TGI: 33.1 µM
HOP-18 NSCLC
  TGI: 32.9 µM
KM20L2 colon
  TGI: 42.8 µM
LXFL 529 NSCLC
  TGI: 33.5 µM
RXF-631 renal
  TGI: 32.5 µM
XF 498 CNS
  TGI: 31.8 µM

## CCCCCC1CC=CC(NC(=O)OCc2ccccc2)C1/C=C/CCCC1OCCO1 (stereo unspecified)
DMS 114 small cell lung
  TGI: > 100 µM
DMS 273 small cell lung
  TGI: > 100 µM
HOP-18 NSCLC
  TGI: > 100 µM
KM20L2 colon
  TGI: > 100 µM
LXFL 529 NSCLC
  TGI: > 100 µM
RXF-631 renal
  TGI: > 100 µM
XF 498 CNS
  TGI: > 100 µM

## COC(=O)/C=C(C)/C=C/c1c(C)c(C(C)=O)c(C)n1C
DMS 273 small cell lung
  TGI: > 100 µM
HOP-18 NSCLC
  TGI: > 100 µM
KM20L2 colon
  TGI: > 100 µM
LXFL 529 NSCLC
  TGI: > 100 µM
RXF-631 renal
  TGI: > 100 µM
XF 498 CNS
  TGI: > 100 µM

## CC(=O)CCn1[nH]c(=O)c(Cl)c(Cl)c1=O
DMS 114 small cell lung
  TGI: > 100 µM
DMS 273 small cell lung
  TGI: > 100 µM
HOP-18 NSCLC
  TGI: > 100 µM
KM20L2 colon
  TGI: > 100 µM
LXFL 529 NSCLC
  TGI: > 100 µM
XF 498 CNS
  TGI: > 100 µM
